Format in all cases: cell-based, hepatitis C virus
The subject of test [1] is genotype 1a (H77) stable HCV replicon in Huh-7-derived cells. Put plainly: Stable subgenomic HCV replicon EC50, genotype 1a (Renilla luciferase). The settings on record: Hepatitis C virus, stable replicon genotype 1a, 72 h, read-out: EC50 1A RLUC. An outline of the steps:
(§1)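 Compounds, three-fold diluted, were applied to Huh-7-derived cells harbouring luciferase replicons (genotype 1a H77, 1b Con1, 2a JFH-1, 4a ED43, with strain-specific adaptive mutations). Seventy-two hours later, intracellular replication was gauged by Renilla luciferase activity and EC50 derived by regression.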
(In general: A replicon is a self-replicating genome or part of one, used to study replication in cells.)

The test system of test [2] is genotype 1b (Con1) stable HCV replicon in Huh-7-derived cells. Put plainly: Stable subgenomic HCV replicon EC50, genotype 1b (Renilla luciferase). The settings on record: Hepatitis C virus, stable replicon genotype 1b, 72 h, read-out: EC50 1B RLUC. The method, boiled down:
as §1

The test system of test [3] is genotype 2a (JFH-1) stable HCV replicon in Huh-7-derived cells. Put plainly: Stable subgenomic HCV replicon EC50, genotype 2a (Renilla luciferase). To be noted: Hepatitis C virus, stable replicon genotype 2a, 72 h, read-out: EC50 2A RLUC. The method, boiled down:
as §1

In test [4] the test system is genotype 3a (S52) stable HCV replicon in Huh-7-derived cells. Put plainly: Stable subgenomic HCV replicon EC50, genotype 3a (Renilla luciferase). The settings on record: Hepatitis C virus, 72 h, read-out: EC50 3A RLUC.
Test [5] relates to genotype 4a (ED43) stable HCV replicon in Huh-7-derived cells. Put plainly: Stable subgenomic HCV replicon EC50, genotype 4a (Renilla luciferase). The settings on record: Hepatitis C virus, 72 h, read-out: EC50 4A RLUC. The method, boiled down:
as §1

The test system of test [6] is genotype 3a (S52) wild type transient HCV replicon in Huh-7-derived cells. Put plainly: Transient-transfected HCV replicon EC50, genotype 3a wild type. To be noted: Hepatitis C virus; transient-transfected replicon genotype 3a wild type, 72 h; read-out: EC50 3A WT.
Test [7] relates to genotype 1a (H77) wild type transient HCV replicon in Huh-7-derived cells. Put plainly: Transient-transfected HCV replicon EC50, genotype 1a wild type. To be noted: Hepatitis C virus, 72 h, transient-transfected replicon genotype 1a wild type, read-out: EC50 1A WT.
For test [8], the system named is genotype 1a NS3/4a protease inhibitor resistant variant R155K transient HCV replicon in Huh-7-derived cells. Put plainly: Transient-transfected HCV replicon EC50, genotype 1a R155K. The settings on record: Hepatitis C virus, 72 h, read-out: EC50 1A R155K, transient-transfected replicon genotype 1a R155K resistant variant, 72 h.
Test [9] relates to genotype 1b (Con1) wild type transient HCV replicon in Huh-7-derived cells. Put plainly: Transient-transfected HCV replicon EC50, genotype 1b wild type. To be noted: Hepatitis C virus, 72 h, transient-transfected replicon genotype 1b wild type, read-out: EC50 1B WT.
Test [10] concerns genotype 1b NS3/4a protease inhibitor resistant variant D168A transient HCV replicon in Huh-7-derived cells. Put plainly: Transient-transfected HCV replicon EC50, genotype 1b D168A. The settings on record: Hepatitis C virus, 72 h, read-out: EC50 1B D168A, transient-transfected replicon genotype 1b D168A resistant variant, 72 h.

As for `C[C@@H]1[C@@H]2CN(C(=O)[C@H](C(C)(C)C)NC(=O)O[C@@H]3C[C@@H]4C[C@@H]4[C@H]3CCCCC(F)(F)c3nc4ccccc4nc3O2)[C@@H]1C(=O)N[C@]1(C(=O)NS(=O)(=O)C2(C)CC2)C[C@H]1C(F)F` [Example 82, (1aS,2aR,6S,9S,10S,11R,23aR,23bS)-6-tert-butyl-N-[(1R,2R)-2-(difluoromethyl)-1-{[(1-methylcyclopropyl)sulfonyl]carbamoyl}cyclopropyl]-19,19-difluoro-10-methy-4,7-dioxo-1a,2,2a,4,5,6,7,10,11,19,20,21,22,23,23a,23b-hexadecahydro-1H,9H-8,11-methanocyclopropa[4′,5′]cyclopenta[1′,2′:18,19][1,10,3,6]dioxadiazacyclononadecino[11,12-b]quinoxaline-9-carboxamide], the EC50 was found to be 8.5 nM in [1]; 9.3 nM in test [2]; 4.7 nM in test [3]; 25 nM in [4]; 10 nM in test [5]; 16 nM in test [6]. Besides, the concentration for a half-maximal effect (EC50) was 7.8 nM in test [7], 6.2 nM in [8], 4.1 nM in test [9] and 5.7 nM in test [10].
Turning to `CC[C@@H]1[C@@H]2CN(C(=O)[C@H](C(C)(C)C)NC(=O)O[C@@H]3C[C@H]3CC/C=C/C(F)(F)c3nc4ccc(C#N)cc4nc3O2)[C@@H]1C(=O)N[C@]1(C(=O)NS(=O)(=O)C2(C)CC2)C[C@H]1C(F)F` [Example 84, (1aR,5S,8S,9S,10R,19E,22aR)-5-tert-butyl-14-cyano-N-[(1R,2R)-2-(difluoromethyl)-1-{[(1-methylcyclopropyl)sulfonyl]carbamoyl}cyclopropyl]-9-ethyl-18,18-difluoro-3,6-dioxo-1,1a,3,4,5,6,9,10,18,21,22,22a-dodecahydro-8H-7,10-methanocyclopropa[18,19][1,10,3,6]dioxadiazacyclononadecino[11,12-b]quinoxaline-8-carboxamide], the EC50 worked out at 5.9 nM in test [1]; 5.7 nM in test [2]; 7.2 nM in test [3]; 27 nM in test [4]; 6.4 nM in test [5]; 11 nM in test [6]. The EC50 in test [7] came out at 5.4 nM; in test [8] it was 4 nM; in test [9], 2.5 nM; in test [10], 5.2 nM.
As to `CC[C@@H]1[C@@H]2CN(C(=O)[C@H](C(C)(C)C)NC(=O)O[C@@H]3C[C@H]3CCCCC(F)(F)c3nc4ccc(OC(F)F)cc4nc3O2)[C@@H]1C(=O)N[C@]1(C(=O)NS(=O)(=O)C2(C)CC2)C[C@H]1C(F)F` [Example 85, (1aR,5S,8S,9S,10R,22aR)-5-tert-butyl-14-(difluoromethoxy)-N-[(1R,2R)-2-(difluoromethyl)-1-{[(1-methylcyclopropyl)sulfonyl]carbamoyl}cyclopropyl]-9-ethyl-18,18-difluoro-3,6-dioxo-1,1a,3,4,5,6,9,10,18,19,20,21,22,22a-tetradecahydro-8H-7,10-methanocyclopropa[18,19][1,10,3,6]dioxadiazacyclononadecino[11,12-b]quinoxaline-8-carboxamide], the concentration for a half-maximal effect (EC50) in [1] is 16 nM; in test [2], 17 nM; in test [3], 7.7 nM; in [4], 304 nM; in test [5], 9.2 nM; in test [6] it was 101 nM. For the same compound, the concentration for a half-maximal effect (EC50) in [7] was determined as 12 nM; in test [8], 22 nM; in [9], 7 nM; in test [10] it was 57 nM.
For `CC[C@@H]1[C@@H]2CN(C(=O)[C@H](C(C)(C)C)NC(=O)O[C@@H]3C[C@H]3CCCCC(F)(F)c3nc4ccc(C#N)cc4nc3O2)[C@@H]1C(=O)N[C@]1(C(=O)NS(=O)(=O)C2(C)CC2)C[C@H]1C(F)F` [Example 87, (1aR,5S,8S,9S,10R,22aR)-5-tert-butyl-14-cyano-N-[(1R,2R)-2-(difluoromethyl)-1-{[(1-methylcyclopropyl)sulfonyl]carbamoyl}cyclopropyl]-9-ethyl-18,18-difluoro-3,6-dioxo-1,1a,3,4,5,6,9,10,18,19,20,21,22,22a-tetradecahydro-8H-7,10-methanocyclopropa[18,19][1,10,3,6]dioxadiazacyclononadecino[11,12-b]quinoxaline-8-carboxamide], the EC50 in [1] turned out to be 4.8 nM; in [2], 3.9 nM; in test [3], 3.3 nM; in [4] it was 14 nM; in test [5], 3.8 nM; in test [6] it was 7.7 nM. Also, the half-maximal effective concentration (EC50) amounted to 2.9 nM in test [7], 2.8 nM in test [8], 1.3 nM in test [9] and 4 nM in [10].
Regarding `C=C[C@@H]1C[C@]1(NC(=O)[C@@H]1[C@H](CC)[C@@H]2CN1C(=O)[C@H](C(C)(C)C)NC(=O)O[C@@H]1C[C@H]1CCCCCc1nc3ccc(OC)cc3nc1O2)C(=O)NS(=O)(=O)C1CC1` [Example 91, (1aR,5S,8S,9S,10R,22aR)-5-tert-butyl-N-{(1R,2S)-1-[(cyclopropylsulfonyl)carbamoyl]-2-ethenylcyclopropyl}-9-ethyl-14-methoxy-3,6-dioxo-1,1a,3,4,5,6,9,10,18,19,20,21,22,22a-tetradecahydro-8H-7,10-methanocyclopropa[18,19][1,10,3,6]dioxadiazacyclononadecino[11,12-b]quinoxaline-8-carboxamide], the 50% effective concentration (EC50) in test [1] worked out at 2.4 nM; in test [2] it was 1.9 nM; in [3] it was 4 nM; in [4] it was 149 nM; in [5], 2.4 nM; in test [6] it was 25 nM. For the same compound, the EC50 in test [7] was found to be 2.3 nM; in test [8], 3.5 nM; in test [9], 1.3 nM; in test [10], 9.2 nM.
As for `C=C[C@@H]1C[C@]1(NC(=O)[C@@H]1[C@H](CC)[C@@H]2CN1C(=O)[C@H](C(C)(C)C)NC(=O)O[C@@H]1C[C@H]1CCCCC(F)(F)c1nc3ccc(OC)cc3nc1O2)C(=O)NS(=O)(=O)C1CC1` [Example 92, (1aR,5S,8S,9S,10R,22aR)-5-tert-butyl-N-{(1R,2S)-1-[(cyclopropylsulfonoyl)carbamoyl]-2-ethenylcyclopropyl}-9-ethyl-18,18-difluoro-14-methoxy-3,6-dioxo-1,1a,3,4,5,6,9,10,18,19,20,21,22,22a-tetradecahydro-8H-7,10-methanocyclopropa[18,19][1,10,3,6]dioxadiazacyclononadecino[11,12-b]quinoxaline-8-carboxamide], the EC50 is 3.3 nM in test [1]; 3.2 nM in [2]; 4.6 nM in [3]; 58 nM in test [4]; 3.2 nM in test [5]; 8 nM in [6]. Moreover, the 50% effective concentration (EC50) in [7] worked out at 3 nM; in [8] it was 3 nM; in test [9] it was 1.7 nM; in test [10] it was 5.3 nM.
With `CC[C@@H]1[C@@H]2CN(C(=O)[C@H](C(C)(C)C)NC(=O)O[C@@H]3C[C@H]3CCCCC(F)(F)c3nc4ccc(OC)cc4nc3O2)[C@@H]1C(=O)NC1(C(=O)NS(=O)(=O)C2(C)CC2)C[C@H]1CC` (stereo partly drawn) [Example 93, (1aR,5S,8S,9S,10R,22aR)-5-tert-butyl-9-ethyl-N-[(2R)-2-ethyl-1-{[(1-methylcyclopropyl)sulfonyl]carbamoyl}cyclopropyl]-18,18-difluoro-14-methoxy-3,6-dioxo-1,1a,3,4,5,6,9,10,18,19,20,21,22,22a-tetradecahydro-8H-7,10-methanocyclopropa[18,19][1,10,3,6]dioxadiazacyclononadecino[11,12-b]quinoxaline-8-carboxamide], the EC50 in [1] was 12 nM; in test [2], 14 nM; in test [3], 15 nM; in test [4] it was 116 nM; in test [5], 11 nM; in test [6], 26 nM. Also, the 50% effective concentration (EC50) in test [7] worked out at 13 nM; in test [8], 13 nM; in [9], 14 nM; in test [10] it was 39 nM.

For orientation: EC50 means the concentration at which the effect is half-maximal.

(Values after patent US10335409B2 (priority 2012, dated 2019).)
